Experimental data from US20060235061A1, “Methods of using benzothiophenone derivatives to treat cancer or inflammation” (QLT,Inc., priority 2002, published 2006).

Biological target: T1, Caspase-3 (Homo sapiens, UniProt P42574)
T1 construct: purchased Calbiochem
T1 sequence (P42574 29-175 limits assumed): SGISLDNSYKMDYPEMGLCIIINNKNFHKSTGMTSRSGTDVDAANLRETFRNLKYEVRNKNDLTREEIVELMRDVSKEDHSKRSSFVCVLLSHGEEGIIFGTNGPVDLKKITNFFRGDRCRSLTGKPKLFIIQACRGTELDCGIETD
T1 sequence (P42574 176-277 limits assumed): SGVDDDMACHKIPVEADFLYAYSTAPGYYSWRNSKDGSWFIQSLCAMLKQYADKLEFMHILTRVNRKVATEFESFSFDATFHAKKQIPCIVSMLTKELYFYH
Assay: Caspase-3 selectivity assay (Calbiochem kit, colorimetric)
Format: biochemical
From the text: This is a selectivity assay providing information about the specificity of the compounds. A cysteine residue located within the active pocket of the catalytic domain that is conserved between the […] like caspase-3 and the protein tyrosine phosphatases like PTPN12 has a thiol group within this cysteine amino acid that may interact with specific R-groups with inhibiting compounds with in vitro enzyme inhibiting activity. Also, caspase inhibition can prevent apoptosis from occurring in some cases via the caspase cascade. As the potential for cross-inhibitory activity and nonselectivity exists, the caspase-3 assay is performed on PTN12 inhibitors.
The Calbiochem caspase-3 assay kit was utilized according to package insert instructions. The assay is useful for screening for caspase-3 inhibitors measuring the protease activity of caspase-3 and other caspase-3-like activities. Cleavage is monitored colorimetrically by measuring the increase in absorbance at 405 nm. Assays were performed in a 96-well microtiter plate format.

Compound: O=C1C(=CC=CC=C2Sc3ccccc3N2CCCS(=O)(=O)O)Sc2ccccc21 [3-{2-[4-(3-Oxo-3H-benzo[b]thiophen-2-ylidene)-but-2-enylidene]-benzothiazol-3-yl}-propane-1-sulfonic acid]
- inhibition at 10 µM (@ 10 μM): 3%
- inhibition at 100 µM (@ 100 μM): 27%
